# In US20240301409A1, “Chemically Modified Small Activating RNA” (RACTIGEN THERAPEUTICS, priority 2021, published 2024):
# Entries after “also recorded” stand apart in the source; their conditions may differ. Read-outs that look alike come from different tables or passages of the source. Oligonucleotides are written 5' to 3', each unit as a sugar letter and its base; * is a phosphorothioate linkage, no mark a phosphodiester; rarer units and linkages stand in square brackets, end groups in braces. Plain capitals give the bases only. d = 2'-deoxy (DNA); m = 2'-O-methyl; r = 2'-OH (RNA); f = 2'-fluoro
# Assays:
# T24 cells = test: Cellular proliferation assay (CCK8) in T24 cells, alone and combined with Mitomycin C or valrubicin; assay type: cell-based, human; settings: T24 cells, 10 nM, 72 hours, CCK8
# Excerpt: (§1) After the transfection, the number of viable cells was detected with a CCK8 kit, and plotted as the percentage of the blank control treatment group. […] A transfection sample without oligonucleotide served as a blank control. Non-specific duplex (dsCon) transfected sample served as a negative control. Data are presented as mean±SD of at least two independent experiments. The values below the dashed line indicate stronger growth inhibitory activity compared to duplex Rag1-40 without chemical modification.
# T24 cells were transfected with RAG1-40-31 at concentrations of 0.1, 0.5, 1, 5, 10, 25 and 50 nM for 24 hours, and then Mitomycin C was added at concentrations of 1, 10, 100, 1000 and 10000 nM. The combined treatment was carried out with concentrations in pairs. After treatment, the cellular proliferation was detected by CCK8 kit. FIGS. 16A-16B show the relative proliferation proportion of T24 cells after the combined treatment with chemically modified saRNA RAG1-40-31 and valrubicin. […] Control and DMSO are the blank transfection control and the solvent for dilution control, respectively.
# T24 cells were transfected with RAG1-40-31 at concentrations of 0.1, 0.5, 1, 5, 10, 25 and 50 nM for 24 hours, and then valrubicin at concentrations of 1, 10, 100, 1000 and 10000 nM was added. The combined treatment was carried out with concentrations in pairs. After treatment, the cellular proliferation was detected by CCK8 kit.
# (§2) Human bladder cancer cells Ku-7-LG (ATCC), J82 (ATCC) and T24 (ATCC) were cultured in McCoy medium (Gibco) comprising 10% calf serum (Sigma-Aldrich) and 1% penicillin/Streptomycin (Gibco). Cells were cultured at 37° C. under 5% CO2. Ku-7-LG, J82 and T24 cells were plated into 12-well plates at 10×10^4 cells per well, transfected with the small RNA at a concentration of 10 nM (unless otherwise specified) for three days, using RNAiMax (Invitrogen, Carlsbad, CA) according to the manufacturer's instructions. Two replicate wells were set for each treatment.
# (§3) Cells were plated in a 96-well plate at 2˜4×10^3 cells/well, cultured overnight, and transfected with the oligonucleotide duplexes. Three days after transfection, CCK8 (Dojindo) was used to detect cellular proliferation following manufacturer's instructions. The experimental steps are briefly described as follows: 10 μL of CCK8 solution was added to each well, incubated at 37° C. for 1 hour, and then the absorbance at 450 nm was measured using a microplate reader.
# (§4) It is known that p21 induction by saRNA is that a variety of tumor suppressor factors such as p21 protein suppress the proliferation of cancer cells. To evaluate the effect of chemically modified saRNAs on the function of cancer cells, cells (Ku-7-LG and T24) were transfected with 10 nM unmodified and modified saRNAs for 72 hours, and the cellular proliferation was determined by CCK8. […] Furthermore, there was a correlation between RNA activating activity (FIGS. 7A-7B) and suppression of cellular proliferation activity (FIGS. 8A-8B). Strong p21 activators are usually also strong cytostatics.
# p21 gene [1] = test: p21 mRNA expression by RT-qPCR in T24 cells; assay type: cell-based, human; settings: 10 nM, 72 hours, compared with unmodified Rag1-40 unless worded otherwise
# Method: (§5) Ku-7-LG and T24 cells were transfected with the indicated saRNA at a final concentration of 10 nM for 3 days. After transfection, the RNA was extracted with the Qiagen RNeasy kit. After reverse transcription, the ABI 7500 fast real-time PCR system was used for qPCR amplification. The GAPDH gene was amplified as an internal reference. […] Dashed line indicates duplex Rag1-40 with no chemical modification in comparison, and the values above the line indicate stronger activity. The control was blank transfection without oligonucleotide. dsCon2 is transfected with a double-stranded scramble RNA. The value of the ordinate represents the mean±SD of 2 repeated treatments.
# (§6) The control and dsCon2 were blank transfection and scramble dsRNA transfection, respectively. The values in the ordinate represent the mean±SD of 2 repeated treatments.
# as §2
# (§7) After transfection, the medium was discarded and to each well 500 μl cell lysate was added and incubated at room temperature for 5 minutes. RNA was extracted with the Qiagen RNeasy kit, and after reverse transcription, qPCR analysis was performed on the ABI 7500 Fast Real-time PCR system (Applied Biosystems). Each sample was amplified in 3 replicate wells.
# (§8) The PCR reaction conditions are: 95° C. for 30 seconds, 95° C. for 5 seconds, 60° C. for 30 seconds, and 40 cycles of amplification. The GAPDH gene was amplified as an internal reference at the same time. p21 was amplified with the p21F1/R1 primer pair, and the specific sequences of the amplification primers are shown in Table 1.
# (§9) In order to calculate the expression value (Erel) of p21 (target gene) of a saRNA transfection sample relative to the control treatment, Formula 1 is used to input the Ct values of the target gene and the internal reference gene for calculation.
# (§10) wherein, CtTm is the Ct value of the target gene from the control treatment sample; CtTs is the Ct value of the target gene from the saRNA treated sample; CtRm is the Ct value of the internal reference gene from the control treatment sample; and CtRs is the Ct value of the internal reference gene from the saRNA treated sample.
# (§11) The main purpose of introducing chemical modifications to regulatory oligonucleotides of a gene is to improve their pharmaceutical properties, including enhancing in vivo stability and mitigating off-target effects (e.g., sequence-dependent targeting of unrelated genes, sequence-dependent or independent immune stimulation), while maintaining their gene regulatory capacity (gene knockdown or activation). To assess the effect of chemical modification on the RNAa activity of saRNA on the p21 gene, 10 nM unmodified (Rag1-40) and modified (Rag1-40-1 to Rag1-40-34) duplexes were transfected into Ku-7-LG and T24 cells, respectively. After 72 hours, the mRNA expression level of p21 was assessed by RT-qPCR. All duplexes induced p21 mRNA expression in all […] at least double that of the control.
# (§12) In order to further evaluate the expression level of p21 mRNA after the different durations of treatment by the chemically modified saRNA duplexes, two saRNAs (RAG1-40-31 and RAG1-40-53) were randomly selected from the above chemically modified saRNA duplexes for detection. RAG1-40-31 and RAG1-40-53 were transfected into Ku-7-LG and T24 cells at a final concentration of 10 nM, for 1, 2, 3, 4, 7 and 9 days, respectively. Each treatment was set up in duplicate. […]
# Ku-7-LG cells = test: Cellular proliferation assay (CCK8) in Ku-7-LG cells; assay type: cell-based, human; settings: 10 nM, 72 hours
# Method: Ku-7-LG cells were transfected with the indicated saRNA at 10 nM for 3 days. […] The closer the luciferase value is to the control group, the lower the probability of off-target effects of saRNA is. Control and dsCon2 were blank transfection and double-stranded scramble RNA transfection, respectively. The value of the ordinate represents the mean±SD of two repeated treatments.
# as §1, §2, §3, §4
# RNase A = target: T1, RNase A (Bos taurus, UniProt P61823)
# T1 sequence (P61823 27-150): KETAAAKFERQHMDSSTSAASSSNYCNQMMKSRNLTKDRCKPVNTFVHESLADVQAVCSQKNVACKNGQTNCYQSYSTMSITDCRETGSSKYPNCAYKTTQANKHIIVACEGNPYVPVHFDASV
# Method: The duplexes obtained at each time point above were each added to 1 μL of 10× loading buffer, and then frozen in liquid nitrogen. After incubation, all samples were detected for the double-stranded RNA by 4% agarose gel electrophoresis, and the content of each duplex was analyzed by Image J software.
# The duplexes obtained at each time point indicated above were each added to 1 μL of 10× loading buffer, and then frozen in liquid nitrogen. After incubation, all samples were detected for the double-stranded RNA by 4% agarose gel electrophoresis, and the content of each duplex was analyzed by Image J software.
# saRNA (1.5 μL, 10 μM) was incubated at a final concentration of 0.02 mg/mL in PBS in the presence of RNase A (Amresco, OH, USA) at 37° C. for different durations. At the end of the incubation, the mixture was snap frozen in liquid nitrogen to stop nuclease activity. Samples were analyzed on a 4% agarose gel and examined for duplex degradation.
# All chemically modified duplexes (Rag1-40-1 to Rag1-40-32) were incubated with 0.02 μg/L of RNase A for different durations (0 to 96 hours). At the end of the incubation, the size and amount of duplexes were detected by agarose gel electrophoresis.
# [2] = system: Rag1-40 target sequence in the 3′ UTR of firefly luciferase, COS-1 cells
# Method: (§13) A 26 bp fragment comprising the target site of Rag1-40 was cloned in the antisense orientation into the 3′ UTR region of the firefly luciferase gene in a pmirGLO dual luciferase vector. Vector plasmids were co-transfected with the indicated saRNAs into COS-1 cells. Cells were lysed 48 hours after transfection, and the resulting lysates were assessed for luciferase activity. Data represent mean±SD of at least two independent experiments. Dashed line represents comparisons to blank control (top dashed line) and Rag1-40 (bottom dashed line). Values close to the top dashed line indicate no off-target effect.
# (§14) A 26 bp fragment comprising the Rag1-40 target sequence was cloned in the antisense orientation into a multiple cloning site (MCS) of the 3′ untranslated region of firefly luciferase of the pmirGLO dual luciferase vector (Promega, Fitchburg, WI), to obtain pOff-Target plasmid. Following E. coli transformation and overnight incubation, plasmids for each construct were prepared by standard method. Each plasmid was transfected into COS-1 monkey kidney epithelial cells using Lipofectamine 3000 (Invitrogen, Carlsbad, CA). Subsequently, saRNA was transfected using RNAiMAX. After 24 hours of incubation, COS-1 cells were lysed with 1× lysis buffer, and luciferase activity was measured using dual luciferase reporter gene assay system (Promega, WI, USA) following manufacturer's instructions.
# (§15) To assess the off-target effects of unmodified and modified saRNAs, a sequence complementary to the sense oligonucleotide strand of Rag1-40 was cloned into the 3′UTR region of the luciferase gene in a pmirGLO dual luciferase vector. The vector plasmid was co-transfected with the saRNA into COS-1 cells. Cells were lysed 48 hours after transfection and the resulting lysates were assessed for luciferase activity.
# p21 gene [3] = test: p21 mRNA expression by RT-qPCR in Ku-7-LG cells; assay type: cell-based, human; settings: 10 nM, 72 hours, compared with unmodified Rag1-40 unless worded otherwise
# Method: as §5, §6, §2, §7, §8, §9, §10, §11, §12
# [4] = system: Rag1-40 target sequence in the 3′ UTR of firefly luciferase, COS-1 cells; test: Analysis of off-target effects (pOff-Target dual luciferase reporter in COS-1 cells); settings: lysed 48 hours after transfection, luciferase activity
# Method: as §13, §14, §15
Substance,"suppression of cellular proliferation, in words (T24 cells)","RNA activation activity (p21 mRNA), in words (p21 gene [1])","suppression of cellular proliferation, in words (Ku-7-LG cells)",degradation of duplex at 96 hours (RNase A),"off-target effect compared to unmodified Rag1-40, in words [2]","RNA activation activity (p21 mRNA), in words (p21 gene [3])","off-target effect compared to unmodified Rag1-40, in words [4]"
Rag1-40-11: saRNA duplex: sense fCfCAACUCAUUCUCCAAGfUfC (SEQ ID NO 14); antisense fUmAfCfUfUmGmGmAmGmAmAfUmGmAmGfUfUmGmGfCmA (SEQ ID NO 8) (sense fCfCrArArCrUrCrArUrUrCrUrCrCrArArGfUfC),negatively affects proliferation suppression activity,reduced activity,negatively affects proliferation suppression activity,little or no signs of degradation,completely inhibited,–,–
"Rag1-40-16: saRNA duplex: sense fCfCAACUCAUUCUCCAAGfUfC (SEQ ID NO 14); antisense fUactfUGGAGAAfUGAGfUfUGG*fC*A (SEQ ID NO 13) (sense CCAACUCAUUCUCCAAGUC; antisense UACTUGGAGAAUGAGUUGGCA; 2'-F, DNA residues, phosphorothioate modifications; modified_base (1)..(19) (1,2,18,19)=2′-fluoro; modified_base (1)..(17) (1,2,9,13,14,17)=2′-fluoro; (1)..(21) (1,5,6,7,8,9,10,11,12,13,14,15,1,61,7,18,19,20, 21)=RNA; (2)..(4) (2,3,4)=DNA; modified_base (16)..(18) (16,17,18)=phosphorothioate (PS) backbone modification)",weakens the activity of the saRNA duplex to suppress cellular proliferation,–,weakens the activity of the saRNA duplex to suppress cellular proliferation,little or no signs of degradation,increased off-target effects,–,–
Rag1-40-32: saRNA duplex: sense fCfCAACUCAUUCUCCAAG*U*C (SEQ ID NO 16); antisense fUactfUGGAGAAfUGAGfUfUGG*fC*A (SEQ ID NO 13) (sense fCfCrArArCrUrCrArUrUrCrUrCrCrArArG*rU*rC; antisense fUdAdCdTfUrGrGrArGrArAfUrGrArGfUfUrGrG*fC*rA),weakens the activity of the saRNA duplex to suppress cellular proliferation,reduced activity; also recorded: attenuated activity,weak cellular proliferation inhibitory activity; also recorded: weakens the activity of the saRNA duplex to suppress cellular proliferation,little or no signs of degradation,increased off-target effects,attenuated activity; also recorded: weak RNA activating activity,–
Rag1-40-33: saRNA duplex: sense CCAACUCAUUCUCCAAGUC (SEQ ID NO 17); antisense UactUGGAGAAUGAGUUGGCA (SEQ ID NO 18) (antisense rUdAdCdTrUrGrGrArGrArArUrGrArGrUrUrGrGrCrA; sense: unmodified RNA),–,reduced activity; also recorded: attenuated activity,weak cellular proliferation inhibitory activity,–,–,attenuated activity; also recorded: weak RNA activating activity,mitigated or similar off-target effects
"Rag1-40-34: saRNA duplex: sense CCAACUCAUUCUCCAAGUC (SEQ ID NO 17); antisense UacttggAGAAUGAGUUGGCA (SEQ ID NO 19) (antisense rUdAdCdTdTdGdGrArGrArArUrGrArGrUrUrGrGrCrA; sense: RNA, phosphodiester; further chemistry not fully specified)",–,reduced activity; also recorded: attenuated activity,weak cellular proliferation inhibitory activity,–,–,attenuated activity; also recorded: weak RNA activating activity,mitigated or similar off-target effects
